pIC50: −log10 of the molar value.
System: K24384-001-R-PDC complex spheroids, viability
Experiment: Anticancer human tumor K24384-001-R-PDC patient-derived pancreatic adenocarcinoma cell line growth inhibition [GQUAD]
Conditions: for pIC50: curve of first compound; for viability, T/C: stronger effect = lower value
In short: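 Viability of tumor cells grown as complex spheroids with endothelial and stromal cells, exposed to drug combinations. Top concentration at or near clinical Cmax (else 10 microM), diluted in half-log increments.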

[1] = second compound 0.0316 µM, first compound 0.0316 µM
[2] = second compound 0.0316 µM, first compound 0.316 µM
[3] = second compound 0.1 µM, first compound 0.0316 µM
[4] = second compound 0.1 µM, first compound 0.316 µM
[5] = second compound 0.316 µM, first compound 0.0316 µM
[6] = second compound 0.316 µM, first compound 0.316 µM
[7] = second compound 1 µM, first compound 0.0316 µM
[8] = second compound 1 µM, first compound 0.316 µM
[9] = second compound 3.16 µM, first compound 0.0316 µM
[10] = second compound 3.16 µM, first compound 0.316 µM
[11] = second compound 10 µM, first compound 0.0316 µM
[12] = second compound 10 µM, first compound 0.316 µM
[13] = second compound 0.0316 µM, first compound 0.1 µM
[14] = second compound 0.0316 µM, first compound 1 µM
[15] = second compound 0.0316 µM, first compound 3.16 µM
[16] = second compound 0.0316 µM, first compound 10 µM
[17] = second compound 0.1 µM, first compound 0.1 µM
[18] = second compound 0.1 µM, first compound 1 µM
[19] = second compound 0.1 µM, first compound 3.16 µM
[20] = second compound 0.1 µM, first compound 10 µM
[21] = second compound 0.316 µM, first compound 0.1 µM
[22] = second compound 0.316 µM, first compound 1 µM
[23] = second compound 0.316 µM, first compound 3.16 µM
[24] = second compound 0.316 µM, first compound 10 µM
[25] = second compound 1 µM, first compound 0.1 µM
[26] = second compound 1 µM, first compound 1 µM
[27] = second compound 1 µM, first compound 3.16 µM
[28] = second compound 1 µM, first compound 10 µM
[29] = second compound 3.16 µM, first compound 0.1 µM
[30] = second compound 3.16 µM, first compound 1 µM
[31] = second compound 3.16 µM, first compound 3.16 µM
[32] = second compound 3.16 µM, first compound 10 µM
[33] = second compound 10 µM, first compound 0.1 µM
[34] = second compound 10 µM, first compound 1 µM
[35] = second compound 10 µM, first compound 3.16 µM
[36] = second compound 10 µM, first compound 10 µM
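Also: spheroids exposed to compounds for seven days.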

SMILES: CCc1c2c(nc3ccc(O)cc13)-c1cc3c(c(=O)n1C2)COC(=O)[C@]3(O)CC + Cc1[nH]c2ccc(F)cc2c1-c1nc2c3cccnc3c3ncccc3c2[nH]1
- pIC50 (second compound 0.0316 µM): 8.03
- pIC50 (second compound 0.1 µM): 7.94
- pIC50 (second compound 0.316 µM): 8.03
- pIC50 (second compound 1 µM): 7.93
- pIC50 (second compound 3.16 µM): 8.22
- pIC50 (second compound 10 µM): 8.40
- viability, T/C (second compound 0.0316 µM, first compound 0.000999 µM): 96.3%
- viability, T/C (second compound 0.0316 µM, first compound 0.00316 µM): 62.2%
- viability, T/C (second compound 0.0316 µM, first compound 0.00999 µM): 53.5%
- viability, T/C [1]: 38.9%
- viability, T/C (second compound 0.0316 µM, first compound 0.0999 µM): 29.3%
- viability, T/C [2]: 27.2%
- viability, T/C (second compound 0.1 µM, first compound 0.000999 µM): 79.8%
- viability, T/C (second compound 0.1 µM, first compound 0.00316 µM): 72.7%
- viability, T/C (second compound 0.1 µM, first compound 0.00999 µM): 51.5%
- viability, T/C [3]: 33.1%
- viability, T/C (second compound 0.1 µM, first compound 0.0999 µM): 31.3%
- viability, T/C [4]: 21.4%
- viability, T/C (second compound 0.316 µM, first compound 0.000999 µM): 72%
- viability, T/C (second compound 0.316 µM, first compound 0.00316 µM): 61.3%
- viability, T/C (second compound 0.316 µM, first compound 0.00999 µM): 47.5%
- viability, T/C [5]: 41.8%
- viability, T/C (second compound 0.316 µM, first compound 0.0999 µM): 28.3%
- viability, T/C [6]: 23.7%
- viability, T/C (second compound 1 µM, first compound 0.000999 µM): 70.6%
- viability, T/C (second compound 1 µM, first compound 0.00316 µM): 57.1%
- viability, T/C (second compound 1 µM, first compound 0.00999 µM): 51.5%
- viability, T/C [7]: 42.2%
- viability, T/C (second compound 1 µM, first compound 0.0999 µM): 39.9%
- viability, T/C [8]: 26.8%
- viability, T/C (second compound 3.16 µM, first compound 0.000999 µM): 65%
- viability, T/C (second compound 3.16 µM, first compound 0.00316 µM): 55.5%
- viability, T/C (second compound 3.16 µM, first compound 0.00999 µM): 41.3%
- viability, T/C [9]: 38.1%
- viability, T/C (second compound 3.16 µM, first compound 0.0999 µM): 30.8%
- viability, T/C [10]: 13.7%
- viability, T/C (second compound 10 µM, first compound 0.000999 µM): 60.4%
- viability, T/C (second compound 10 µM, first compound 0.00316 µM): 48.9%
- viability, T/C (second compound 10 µM, first compound 0.00999 µM): 43.8%
- viability, T/C [11]: 28.4%
- viability, T/C (second compound 10 µM, first compound 0.0999 µM): 15.1%
- viability, T/C [12]: 11%

SMILES: CC(C)n1c(=O)n(C)c2cnc3cc(F)c(-c4ccc(OCCCN5CCCCC5)nc4)cc3c21 + CN(C)c1ccc(Nc2c3ccc(NC(=O)CCN4CCCC4)cc3nc3cc(NC(=O)CCN4CCCC4)ccc23)cc1
- pIC50 (second compound 0.0316 µM): < 5.00
- pIC50 (second compound 0.1 µM): < 5.00
- pIC50 (second compound 0.316 µM): < 5.00
- pIC50 (second compound 1 µM): < 5.00
- pIC50 (second compound 3.16 µM): 5.02
- pIC50 (second compound 10 µM): 6.21
- viability, T/C [1]: 97.1%
- viability, T/C [13]: 82.6%
- viability, T/C [2]: 109%
- viability, T/C [14]: 116%
- viability, T/C [15]: 119%
- viability, T/C [16]: 84.1%
- viability, T/C [3]: 85.7%
- viability, T/C [17]: 101%
- viability, T/C [4]: 121%
- viability, T/C [18]: 99.4%
- viability, T/C [19]: 122%
- viability, T/C [20]: 79%
- viability, T/C [5]: 80.5%
- viability, T/C [21]: 97.2%
- viability, T/C [6]: 109%
- viability, T/C [22]: 110%
- viability, T/C [23]: 129%
- viability, T/C [24]: 86.9%
- viability, T/C [7]: 77.9%
- viability, T/C [25]: 88.7%
- viability, T/C [8]: 92.8%
- viability, T/C [26]: 118%
- viability, T/C [27]: 109%
- viability, T/C [28]: 67.3%
- viability, T/C [9]: 90.2%
- viability, T/C [29]: 89.2%
- viability, T/C [10]: 105%
- viability, T/C [30]: 95.7%
- viability, T/C [31]: 78.2%
- viability, T/C [32]: 48.7%
- viability, T/C [11]: 69.8%
- viability, T/C [33]: 70.5%
- viability, T/C [12]: 55.9%
- viability, T/C [34]: 44.7%
- viability, T/C [35]: 31%
- viability, T/C [36]: 21.5%

SMILES: CCCS(=O)(=O)Nc1ccc(F)c(C(=O)c2c[nH]c3ncc(-c4ccc(Cl)cc4)cc23)c1F + CN(C)c1ccc(Nc2c3ccc(NC(=O)CCN4CCCC4)cc3nc3cc(NC(=O)CCN4CCCC4)ccc23)cc1
- pIC50 (second compound 0.0316 µM): < 5.00
- pIC50 (second compound 0.1 µM): 5.00
- pIC50 (second compound 0.316 µM): < 5.00
- pIC50 (second compound 1 µM): < 5.00
- pIC50 (second compound 3.16 µM): 5.03
- pIC50 (second compound 10 µM): 5.11
- viability, T/C [1]: 110%
- viability, T/C [13]: 102%
- viability, T/C [2]: 129%
- viability, T/C [14]: 128%
- viability, T/C [15]: 138%
- viability, T/C [16]: 54%
- viability, T/C [3]: 98.5%
- viability, T/C [17]: 118%
- viability, T/C [4]: 113%
- viability, T/C [18]: 124%
- viability, T/C [19]: 150%
- viability, T/C [20]: 49.8%
- viability, T/C [5]: 93.5%
- viability, T/C [21]: 114%
- viability, T/C [6]: 124%
- viability, T/C [22]: 125%
- viability, T/C [23]: 144%
- viability, T/C [24]: 52%
- viability, T/C [7]: 102%
- viability, T/C [25]: 105%
- viability, T/C [8]: 117%
- viability, T/C [26]: 131%
- viability, T/C [27]: 154%
- viability, T/C [28]: 53.3%
- viability, T/C [9]: 92.7%
- viability, T/C [29]: 101%
- viability, T/C [10]: 97.2%
- viability, T/C [30]: 128%
- viability, T/C [31]: 140%
- viability, T/C [32]: 46%
- viability, T/C [11]: 84.3%
- viability, T/C [33]: 114%
- viability, T/C [12]: 109%
- viability, T/C [34]: 149%
- viability, T/C [35]: 139%
- viability, T/C [36]: 31.3%

Source: PubChem BioAssay AID2060483 (Molecular Pharmacology Branch, DTP, NCI, 2025)
